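These data come from cells grown in 96-well plates and exposed to compound for 48 hours at five concentrations. Abbreviation: GI50, concentration required for 50% inhibition of growth. At the TGI there is no net growth.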
Key:
Test in all cases: growth of human tumour cells (NCI), 48 h
786-0 renal = system: 786-0 renal
A498 renal = system: A498 renal
COLO 205 colon = system: COLO 205 colon
IGROV1 ovarian = system: IGROV1 ovarian
K-562 leukemia = system: K-562 leukemia
LOX IMVI melanoma = system: LOX IMVI melanoma
MCF7 breast = system: MCF7 breast
OVCAR-8 ovarian = system: OVCAR-8 ovarian
SF-295 CNS = system: SF-295 CNS
HT29 colon = system: HT29 colon

SMILES | GI50 (786-0 renal) | TGI (786-0 renal) | GI50 (A498 renal) | TGI (A498 renal) | GI50 (COLO 205 colon) | TGI (COLO 205 colon) | GI50 (IGROV1 ovarian) | TGI (IGROV1 ovarian) | GI50 (K-562 leukemia) | TGI (K-562 leukemia) | GI50 (LOX IMVI melanoma) | TGI (LOX IMVI melanoma) | GI50 (MCF7 breast) | TGI (MCF7 breast) | GI50 (OVCAR-8 ovarian) | TGI (OVCAR-8 ovarian) | GI50 (SF-295 CNS) | TGI (SF-295 CNS) | GI50 (HT29 colon) | TGI (HT29 colon)
O=C(CC(=O)c1cccc(Cl)c1)c1cccc(Cl)c1 | 3.86 µM | > 100 µM | 5.07 µM | > 100 µM | 3.97 µM | > 100 µM | 2.63 µM | > 100 µM | 1.12 µM | > 100 µM | 1.37 µM | > 100 µM | 1.72 µM | > 100 µM | 2.6 µM | > 100 µM | 1.01 µM | > 100 µM | – | –
CCCCCCCC(=O)OCC(=O)[C@]1(O)Cc2c(O)c3c(c(O)c2[C@@H](OC2CC(N)C(O)C(C)O2)C1)C(=O)c1c(OC)cccc1C3=O (stereo partly specified) | 0.0622 µM | 1.25 µM | 0.215 µM | 0.951 µM | 0.0812 µM | 0.778 µM | – | – | – | – | – | – | – | 0.417 µM | – | – | 0.0471 µM | 1.23 µM | – | –
O=C(N/N=C/c1cc(Cl)cc(Cl)c1[O-])c1ccccc1.O=C(N/N=C/c1cc(Cl)cc(Cl)c1[O-])c1ccccc1.[Co+2] | 10.4 µM | > 100 µM | 34.4 µM | > 100 µM | 42.1 µM | > 100 µM | 27.8 µM | > 100 µM | 15.6 µM | 76.7 µM | 9.19 µM | > 100 µM | – | – | 21.1 µM | > 100 µM | 20.8 µM | 97.6 µM | 49.5 µM | > 100 µM
NCCCCCCNCc1cccc2ccccc12 | – | > 100 µM | – | – | – | > 100 µM | – | > 100 µM | – | 51.1 µM | – | > 100 µM | – | – | – | > 100 µM | – | > 100 µM | – | > 100 µM
O=C(C/C(CCC(=O)N(Cc1ccccc1)Cc1ccccc1)=N/Nc1ccc([N+](=O)[O-])cc1[N+](=O)[O-])c1ccccc1 | – | > 100 µM | – | – | – | > 100 µM | – | > 100 µM | – | > 100 µM | – | > 100 µM | – | – | – | > 100 µM | – | > 100 µM | – | > 100 µM
Cc1nc2sccn2c1C(=O)NC(=O)Nc1ccc(Cl)cc1 | – | > 100 µM | – | > 100 µM | – | > 100 µM | – | > 100 µM | – | > 100 µM | – | > 100 µM | – | – | – | > 100 µM | – | > 100 µM | – | > 100 µM
O=c1cc(-c2ccccc2)oc2cc(OC/C(=N/O)c3ccc(F)cc3)ccc12 | 39.6 µM | > 50 µM | – | – | 26.1 µM | > 50 µM | 19.6 µM | > 50 µM | 27.5 µM | > 50 µM | 20.8 µM | > 50 µM | 11.9 µM | 31 µM | 32.2 µM | > 50 µM | 8.93 µM | 24.6 µM | 29.6 µM | > 50 µM
O=C(CCc1nnc2s/c(=C\c3ccccc3Cl)c(=O)n12)Nc1cc(Cl)ccc1Cl | – | > 100 µM | – | – | – | – | – | > 100 µM | – | > 100 µM | – | > 100 µM | – | – | – | > 100 µM | – | > 100 µM | – | > 100 µM
S=C=NCCc1ccccc1 | – | 1.05 µM | – | 2 µM | – | 3.07 µM | – | 1.37 µM | – | > 64.1 µM | – | 0.66 µM | – | – | – | 5.57 µM | – | 3.47 µM | – | 0.554 µM
CNS(=O)(=O)OCC1OC(n2cnc3c(N)ncnc32)C(O)C1O (stereo unspecified) | > 100 µM | > 100 µM | > 100 µM | > 100 µM | > 100 µM | > 100 µM | > 100 µM | > 100 µM | – | – | > 100 µM | > 100 µM | > 100 µM | > 100 µM | > 100 µM | > 100 µM | > 100 µM | > 100 µM | > 100 µM | > 100 µM
CN(C)CCNC(=O)c1cccc2ccc(-c3ccc(-c4ccccc4)cc3)nc12 | – | 3.39 µM | – | 11 µM | – | 3 µM | – | > 44.9 µM | – | 5.64 µM | – | 3.09 µM | – | – | – | 7.66 µM | – | 4.03 µM | – | 3.72 µM
CCCCCCCCCCCCCC(=O)CSCCNC(=O)CCNC(=O)[C@@H](O)C(C)(C)COP(=O)(O)OP(=O)(O)OCC1OC(n2cnc3c(N)ncnc32)C(O)C1OP(=O)(O)O (stereo partly specified) | – | 30.1 µM | – | 35.5 µM | – | 29.4 µM | – | 28.6 µM | – | – | – | 37.2 µM | – | – | – | 83.5 µM | – | 27.3 µM | – | 45.3 µM
COc1ccccc1NS(=O)(=O)c1ccc2oc(SC(C)C)nc2c1 | 26.6 µM | > 100 µM | 23.3 µM | 61.7 µM | 18.6 µM | 40.1 µM | – | – | 3.73 µM | > 100 µM | 12.7 µM | 46.4 µM | 15.5 µM | > 100 µM | 25.6 µM | > 100 µM | 11.1 µM | 37 µM | 22.2 µM | 64.1 µM
CCOC(=O)/C(=C/c1ccc(N(CCC#N)CCC#N)cc1C)NC(=O)/C=C/c1ccccc1 | – | > 100 µM | – | > 100 µM | – | > 100 µM | – | > 100 µM | – | > 100 µM | – | > 100 µM | – | – | – | > 100 µM | – | > 100 µM | – | > 100 µM
Cn1c(=O)c2[nH]cnc2n(CC(N)=O)c1=O | – | > 100 µM | – | > 100 µM | – | > 100 µM | – | > 100 µM | – | > 100 µM | – | – | – | – | – | > 100 µM | – | – | – | > 100 µM
CC(=O)NNc1nc(C)c(C(=O)NNC(=O)C(=O)Nc2ccc([N+](=O)[O-])cc2C#N)s1 | – | > 100 µM | – | > 100 µM | – | > 100 µM | – | > 100 µM | – | > 100 µM | – | > 100 µM | – | – | – | > 100 µM | – | – | – | > 100 µM
CC(C)(C)OC(=O)c1cccnc1/C=N/O | – | > 100 µM | – | – | – | > 100 µM | – | > 100 µM | – | > 100 µM | – | > 100 µM | – | – | – | > 100 µM | – | > 100 µM | – | > 100 µM
CCOC(=O)C1([Se]c2ccccc2)CCCC1=O (stereo unspecified) | – | 28.4 µM | – | > 100 µM | – | 30.8 µM | – | 78.4 µM | – | > 100 µM | – | 26.7 µM | – | – | – | 30.5 µM | – | > 100 µM | – | > 100 µM
COC1C2c3cc4c(cc3CC(C#N)(c3ccccc32)N1C(=O)c1ccccc1)OCO4 (stereo unspecified) | – | > 100 µM | – | – | – | > 100 µM | – | > 100 µM | – | > 100 µM | – | > 100 µM | – | – | – | > 100 µM | – | > 100 µM | – | > 100 µM

Source: PubChem BioAssay (NCI)
